Earlier results in US12138268B2, “Treatment of erectile dysfunction and other indications” (Strategic Science & Technologies, LLC, priority 2009, dated 2024).

Which pKa does the source give for `CCCOc1ccc(S(=O)(=O)N2CCN(CCO)CC2)cc1-c1nc2c(CCC)cn(CC)c2c(=O)[nH]1` [mirodenafil] here?
Its pKa is 6.0.
